Data taken from ChEMBL document CHEMBL5649167, “The SUV4-20 inhibitor A-196 verifies a role for epigenetics in genomic integrity” (Nat Chem Biol, 2017).
Activity calls are given as the source filed them. The calls are words filed in the database; no cut-off is given here.

What was measured:
[1] = target: Sigma non-opioid intracellular receptor 1 (Homo sapiens) (UniProt Q99720); assay: Inhibition of human Sigma non-opioid intracellular receptor 1 at 10 uM relative to control; type: cell-based
MEF = assay: Antiproliferative activity against mouse MEF cells assessed as change in H4K20me1 at 10 uM incubated for 3 days by immunofluorescence analysis; type: functional, cell-based; conditions: time 3.0 day
Homo sapiens = species on record: Homo sapiens; assay: Inhibition of human CB1 at 10 uM relative to control
U2OS [2] = assay: Inhibition of colony formation in human U2OS cells at 1 uM incubated for 48 hrs in the presence of etoposide by cell clonogenic assay; type: functional, cell-based
HeLa = assay: Antiproliferative activity against human HeLa cells assessed as cell population doubling at 1 uM incubated for 80 days; type: functional, cell-based; conditions: time 80.0 day
[3] = target: Serine/threonine-protein kinase TAO2 (Homo sapiens) (UniProt Q9UL54); assay: Inhibition of human TAOK2 at 10 uM relative to control
U2OS [4] = assay: Induction of DNA repair in human U2OS cells assessed as inhibition in 53BP1 foci formation at 1 uM measured after 24 hrs in the presence of 10 Gy of ionizing radiation by immunofluorescence analysis; type: functional, cell-based
[5] = target: Serine/threonine-protein kinase PAK 4 (Homo sapiens) (UniProt O96013); assay: Inhibition of human PAK4 at 10 uM relative to control
[6] = target: Tyrosine-protein kinase ABL1 (Homo sapiens) (UniProt P00519); assay: Inhibition of human Abl at 10 uM relative to control
[7] = target: Serine/threonine-protein kinase PLK1 (Homo sapiens) (UniProt P53350); assay: Inhibition of human PLK1 at 10 uM relative to control
U2OS [8] = assay: Inhibition of H4K20me2 in human U2OS cells at 3 uM incubated for 48 hrs by Western blotting analysis; type: functional, cell-based
[9] = target: PRMT5/MEP50 complex (Homo sapiens) (UniProt O14744+Q9BQA1); assay: Inhibition of PRMT5/MEP50 complex (unknown origin) using Biotin-tagged H4K20me1 and [3H-SAM] as substrate at 1 to 10 uM incubated for 2 hrs by scintillation proximity assay; type: protein-complex assay; conditions: dose 1-10 µM
U2OS [10] = assay: Induction of DNA repair in human U2OS cells expressing I-SceI reporter assessed as decrease in H4K20me3 level by Western blot analysis; type: functional, cell-based
U2OS [11] = assay: Induction of cell cycle arrest in human U2OS cells assessed as increase in H4K20me1 in S phase at 0.6 to 6 uM by plot analysis; type: functional, cell-based; conditions: dose 0.6-6 µM
[12] = target: Serine/threonine-protein kinase PAK 2 (Homo sapiens) (UniProt Q13177); assay: Inhibition of human PAK2 at 10 uM relative to control
Sequence of Serine/threonine-protein kinase PAK 2 (Homo sapiens) (Q13177 whole entry): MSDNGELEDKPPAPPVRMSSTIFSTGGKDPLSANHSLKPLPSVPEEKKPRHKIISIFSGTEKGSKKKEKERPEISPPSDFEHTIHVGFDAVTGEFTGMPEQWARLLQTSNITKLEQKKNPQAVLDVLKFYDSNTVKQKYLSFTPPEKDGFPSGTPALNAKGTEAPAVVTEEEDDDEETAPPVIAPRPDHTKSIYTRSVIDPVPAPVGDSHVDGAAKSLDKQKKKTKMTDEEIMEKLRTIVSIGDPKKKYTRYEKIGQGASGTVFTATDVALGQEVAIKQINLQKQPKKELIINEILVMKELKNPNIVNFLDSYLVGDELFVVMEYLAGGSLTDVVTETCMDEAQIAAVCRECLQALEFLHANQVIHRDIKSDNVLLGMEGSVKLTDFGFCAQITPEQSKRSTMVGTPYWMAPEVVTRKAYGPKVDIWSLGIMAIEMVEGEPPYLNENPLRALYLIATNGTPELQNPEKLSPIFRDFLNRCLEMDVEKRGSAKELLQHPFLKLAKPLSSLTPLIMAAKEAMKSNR

[13] = target: Histone-lysine N-methyltransferase NSD3 (Homo sapiens) (UniProt Q9BZ95); assay: Inhibition of NSD3 (unknown origin) at 1 to 10 uM incubated for 1 hrs by scintillation proximity assay; conditions: dose 1-10 µM
Sequence of Histone-lysine N-methyltransferase NSD3 (Homo sapiens) (Q9BZ95 whole entry): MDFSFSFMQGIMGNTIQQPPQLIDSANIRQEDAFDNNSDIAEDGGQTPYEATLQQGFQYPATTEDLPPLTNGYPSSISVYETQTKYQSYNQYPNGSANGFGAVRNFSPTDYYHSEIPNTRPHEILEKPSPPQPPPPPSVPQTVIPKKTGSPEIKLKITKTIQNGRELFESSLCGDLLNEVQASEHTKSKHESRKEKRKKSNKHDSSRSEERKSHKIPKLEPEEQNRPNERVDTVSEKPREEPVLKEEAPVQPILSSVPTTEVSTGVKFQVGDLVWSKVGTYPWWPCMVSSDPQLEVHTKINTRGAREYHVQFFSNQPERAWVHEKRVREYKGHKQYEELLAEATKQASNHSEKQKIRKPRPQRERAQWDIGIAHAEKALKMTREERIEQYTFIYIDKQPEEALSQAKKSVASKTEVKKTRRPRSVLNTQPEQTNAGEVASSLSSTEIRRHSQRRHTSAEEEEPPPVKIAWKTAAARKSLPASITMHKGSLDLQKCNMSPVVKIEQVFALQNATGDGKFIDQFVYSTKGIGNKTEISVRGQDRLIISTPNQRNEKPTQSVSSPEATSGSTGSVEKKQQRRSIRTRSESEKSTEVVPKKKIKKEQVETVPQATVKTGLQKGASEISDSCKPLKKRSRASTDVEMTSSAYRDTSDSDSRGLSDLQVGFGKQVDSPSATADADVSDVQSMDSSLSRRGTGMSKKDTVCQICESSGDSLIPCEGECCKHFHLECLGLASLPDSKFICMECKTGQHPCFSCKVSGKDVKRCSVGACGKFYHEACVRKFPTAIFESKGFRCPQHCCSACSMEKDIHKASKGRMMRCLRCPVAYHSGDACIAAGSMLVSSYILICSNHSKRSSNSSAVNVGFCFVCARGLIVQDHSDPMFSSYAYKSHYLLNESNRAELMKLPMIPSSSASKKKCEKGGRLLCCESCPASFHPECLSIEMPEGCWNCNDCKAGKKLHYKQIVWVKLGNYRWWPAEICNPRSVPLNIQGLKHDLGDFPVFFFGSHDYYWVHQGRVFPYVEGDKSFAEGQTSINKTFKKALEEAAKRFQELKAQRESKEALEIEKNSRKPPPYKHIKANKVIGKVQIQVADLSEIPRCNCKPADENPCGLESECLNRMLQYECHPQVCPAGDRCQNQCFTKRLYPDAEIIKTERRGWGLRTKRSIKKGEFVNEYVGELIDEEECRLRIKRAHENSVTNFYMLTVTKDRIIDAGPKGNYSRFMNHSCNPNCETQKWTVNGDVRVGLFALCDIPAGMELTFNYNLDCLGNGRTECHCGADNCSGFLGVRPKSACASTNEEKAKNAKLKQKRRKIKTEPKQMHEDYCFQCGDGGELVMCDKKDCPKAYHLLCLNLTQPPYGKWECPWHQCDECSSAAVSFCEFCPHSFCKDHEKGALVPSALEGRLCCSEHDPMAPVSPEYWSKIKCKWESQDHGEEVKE

[14] = target: Histone-lysine N-methyltransferase, H3 lysine-36 specific (Homo sapiens) (UniProt Q96L73); assay: Inhibition of NSD1 (unknown origin) at 1 to 10 uM incubated for 1 hrs by scintillation proximity assay; conditions: dose 1-10 µM
[15] = target: Histone-lysine N-methyltransferase KMT5B (Homo sapiens) (UniProt Q4FZB7); assay: Binding affinity to recombinant human 6His-(Tev)-G-SUV420H1 (69 to 335 residues) assessed as increase thermal stability by measuring change in melting temperature at 50 uM by thermal shift assay
Sequence of Histone-lysine N-methyltransferase KMT5B (Homo sapiens) (Q4FZB7 whole entry, looked up, the tested form may be a part): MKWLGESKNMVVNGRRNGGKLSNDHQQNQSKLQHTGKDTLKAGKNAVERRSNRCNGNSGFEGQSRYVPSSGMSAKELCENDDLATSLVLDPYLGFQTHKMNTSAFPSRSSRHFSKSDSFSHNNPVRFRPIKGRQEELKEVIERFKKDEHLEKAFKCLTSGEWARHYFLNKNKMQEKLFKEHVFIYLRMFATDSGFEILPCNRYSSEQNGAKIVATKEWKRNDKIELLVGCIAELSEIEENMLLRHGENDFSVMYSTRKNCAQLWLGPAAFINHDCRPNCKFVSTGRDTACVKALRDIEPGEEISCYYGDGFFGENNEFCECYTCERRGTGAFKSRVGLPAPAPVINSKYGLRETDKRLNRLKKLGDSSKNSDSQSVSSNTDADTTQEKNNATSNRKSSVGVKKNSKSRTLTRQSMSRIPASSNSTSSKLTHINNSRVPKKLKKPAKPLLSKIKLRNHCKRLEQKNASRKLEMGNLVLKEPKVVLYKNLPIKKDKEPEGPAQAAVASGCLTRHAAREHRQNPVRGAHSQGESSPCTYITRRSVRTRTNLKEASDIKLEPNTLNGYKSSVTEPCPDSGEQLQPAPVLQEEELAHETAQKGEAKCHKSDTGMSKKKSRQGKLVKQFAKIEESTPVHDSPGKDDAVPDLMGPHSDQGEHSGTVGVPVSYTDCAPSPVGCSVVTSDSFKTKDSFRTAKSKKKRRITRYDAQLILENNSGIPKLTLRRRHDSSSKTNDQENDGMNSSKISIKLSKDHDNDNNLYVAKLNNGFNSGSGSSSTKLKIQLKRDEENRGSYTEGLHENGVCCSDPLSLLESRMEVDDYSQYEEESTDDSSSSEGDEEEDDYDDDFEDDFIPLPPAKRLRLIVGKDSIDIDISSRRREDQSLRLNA

[16] = target: Histone-lysine N-methyltransferase SUV39H2 (Homo sapiens) (UniProt Q9H5I1); assay: Inhibition of SUV39H2 (unknown origin) using Biotin-tagged H4K20me1 and [3H-SAM] as substrate at 1 to 10 uM incubated for 2 hrs by scintillation proximity assay; conditions: dose 1-10 µM
Sequence of Histone-lysine N-methyltransferase SUV39H2 (Homo sapiens) (Q9H5I1 whole entry): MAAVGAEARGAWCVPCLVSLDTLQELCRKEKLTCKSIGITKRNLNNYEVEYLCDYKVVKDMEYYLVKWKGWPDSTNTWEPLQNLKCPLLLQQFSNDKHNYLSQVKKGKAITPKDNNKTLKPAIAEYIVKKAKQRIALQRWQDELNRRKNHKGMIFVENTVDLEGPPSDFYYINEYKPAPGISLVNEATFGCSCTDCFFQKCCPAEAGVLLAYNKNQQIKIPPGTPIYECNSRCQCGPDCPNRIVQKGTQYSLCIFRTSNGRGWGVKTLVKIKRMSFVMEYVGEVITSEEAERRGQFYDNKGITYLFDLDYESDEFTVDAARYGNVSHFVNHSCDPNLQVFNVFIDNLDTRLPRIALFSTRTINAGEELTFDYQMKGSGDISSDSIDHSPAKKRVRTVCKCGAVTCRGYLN

[17] = target: cAMP-dependent protein kinase (PKA) (Homo sapiens) (UniProt P22694+P17612+P22612); assay: Inhibition of human PKA at 10 uM relative to control; type: protein assay
[18] = target: Protein kinase C beta type (Homo sapiens) (UniProt P05771); assay: Inhibition of human PKCbeta 2 at 10 uM relative to control
Sequence of Protein kinase C beta type (Homo sapiens) (P05771 2-671 limits assumed): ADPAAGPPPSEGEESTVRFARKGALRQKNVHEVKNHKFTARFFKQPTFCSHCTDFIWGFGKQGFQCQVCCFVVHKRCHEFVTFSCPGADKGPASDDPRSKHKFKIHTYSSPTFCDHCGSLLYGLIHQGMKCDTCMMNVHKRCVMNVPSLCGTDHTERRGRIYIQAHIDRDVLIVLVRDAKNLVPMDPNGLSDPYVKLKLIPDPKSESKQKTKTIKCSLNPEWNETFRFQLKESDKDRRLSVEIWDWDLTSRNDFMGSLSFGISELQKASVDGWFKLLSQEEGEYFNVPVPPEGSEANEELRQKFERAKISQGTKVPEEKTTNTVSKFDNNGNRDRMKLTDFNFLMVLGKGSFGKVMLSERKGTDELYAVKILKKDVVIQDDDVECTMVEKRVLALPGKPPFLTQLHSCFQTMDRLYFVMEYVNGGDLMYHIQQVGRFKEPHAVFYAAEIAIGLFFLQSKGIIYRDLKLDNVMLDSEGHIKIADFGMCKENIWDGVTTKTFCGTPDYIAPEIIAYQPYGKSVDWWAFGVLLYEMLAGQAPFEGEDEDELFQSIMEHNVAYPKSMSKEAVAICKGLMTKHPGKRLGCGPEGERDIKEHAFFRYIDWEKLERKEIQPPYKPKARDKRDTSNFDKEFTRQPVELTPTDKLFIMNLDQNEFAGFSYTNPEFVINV

[19] = target: Serine/threonine-protein kinase 26 (Homo sapiens) (UniProt Q9P289); assay: Inhibition of human MST4 at 10 uM relative to control
Sequence of Serine/threonine-protein kinase 26 (Homo sapiens) (Q9P289 2-416 limits assumed): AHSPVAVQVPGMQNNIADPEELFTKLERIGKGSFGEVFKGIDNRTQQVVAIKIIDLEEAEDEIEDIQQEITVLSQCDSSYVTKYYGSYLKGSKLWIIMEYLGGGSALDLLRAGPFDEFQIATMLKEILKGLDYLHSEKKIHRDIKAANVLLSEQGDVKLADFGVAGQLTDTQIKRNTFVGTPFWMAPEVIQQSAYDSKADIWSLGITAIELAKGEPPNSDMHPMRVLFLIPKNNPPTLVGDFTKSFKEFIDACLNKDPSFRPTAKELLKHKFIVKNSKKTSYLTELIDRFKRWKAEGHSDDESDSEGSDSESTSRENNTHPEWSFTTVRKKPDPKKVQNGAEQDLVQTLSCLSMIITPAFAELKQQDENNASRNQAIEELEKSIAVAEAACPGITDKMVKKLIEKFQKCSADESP

[20] = target: Protein arginine N-methyltransferase 6 (Homo sapiens) (UniProt Q96LA8); assay: Inhibition of PRMT6 (unknown origin) using Biotin-tagged H4K20me1 and [3H-SAM] as substrate at 1 to 10 uM incubated for 2 hrs by scintillation proximity assay; conditions: dose 1-10 µM
Sequence of Protein arginine N-methyltransferase 6 (Homo sapiens) (Q96LA8 whole entry, looked up): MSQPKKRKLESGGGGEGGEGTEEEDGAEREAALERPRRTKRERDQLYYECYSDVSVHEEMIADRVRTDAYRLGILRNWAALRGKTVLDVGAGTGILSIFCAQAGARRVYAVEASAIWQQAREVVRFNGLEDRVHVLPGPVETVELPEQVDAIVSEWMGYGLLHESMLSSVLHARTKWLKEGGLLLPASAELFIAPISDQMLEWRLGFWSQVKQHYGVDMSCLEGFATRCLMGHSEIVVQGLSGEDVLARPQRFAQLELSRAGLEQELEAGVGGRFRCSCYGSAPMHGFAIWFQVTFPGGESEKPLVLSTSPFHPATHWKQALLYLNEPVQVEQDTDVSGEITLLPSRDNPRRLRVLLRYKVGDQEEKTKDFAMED

[21] = target: High affinity nerve growth factor receptor (Homo sapiens) (UniProt P04629); assay: Inhibition of human TRKA at 10 uM relative to control
U2OS [22] = assay: Cytotoxicity against human U2OS cells assessed as cell viability at 1.5 to 100 uM incubated after 72 hrs; type: functional, cell-based; conditions: dose 1.5-100 µM
[23] = target: Rho-associated protein kinase 1 (Homo sapiens) (UniProt Q13464); assay: Inhibition of human ROCK1 at 10 uM relative to control
U2OS [24] = assay: Inhibition of colony formation in human U2OS cells at 1 uM incubated for 48 hrs in the presence of olaparib by cell clonogenic assay; type: functional, cell-based
U2OS [25] = assay: Induction of cell cycle arrest in human U2OS cells assessed as decrease in H4K20me3 in S phase at 0.6 to 6 uM by plot analysis; type: functional, cell-based; conditions: dose 0.6-6 µM
[26] = target: Histone-lysine N-methyltransferase 2A (Homo sapiens) (UniProt Q03164); assay: Inhibition of MLL1 (unknown origin) using Biotin-tagged H4K20me1 and [3H-SAM] as substrate at 1 to 10 uM incubated for 2 hrs by scintillation proximity assay; conditions: dose 1-10 µM
[27] = target: Histone-lysine N-methyltransferase 2C (Homo sapiens) (UniProt Q8NEZ4); assay: Inhibition of MLL3 (unknown origin) using Biotin-tagged H4K20me1 and [3H-SAM] as substrate at 1 to 10 uM incubated for 2 hrs by scintillation proximity assay; conditions: dose 1-10 µM
[28] = target: Sodium-dependent serotonin transporter (Homo sapiens) (UniProt P31645); assay: Inhibition of human SERT expressed in stable HEK cells at 10 uM relative to control; type: cell-based
[29] = target: RAC-alpha serine/threonine-protein kinase (Homo sapiens) (UniProt P31749); assay: Inhibition of human Akt1 at 10 uM relative to control
U2OS [30] = assay: Cytotoxicity against human U2OS cells assessed as cell viability upto 12.5 uM incubated for 48 hrs; type: functional, cell-based
[31] = target: Endothelin-1 receptor (Homo sapiens) (UniProt P25101); assay: Inhibition of human ETA at 10 uM relative to control
[32] = target: Protein arginine N-methyltransferase 7 (Homo sapiens) (UniProt Q9NVM4); assay: Inhibition of PRMT7 (unknown origin) using Biotin-tagged H4K20me1 and [3H-SAM] as substrate at 1 to 10 uM incubated for 2 hrs by scintillation proximity assay; conditions: dose 1-10 µM
U2OS [33] = assay: Inhibition of colony formation in human U2OS cells at 1 uM incubated for 48 hrs in the presence of hydroxyurea by cell clonogenic assay; type: functional, cell-based

Sequence of Sigma non-opioid intracellular receptor 1 (Homo sapiens) (Q99720 whole entry): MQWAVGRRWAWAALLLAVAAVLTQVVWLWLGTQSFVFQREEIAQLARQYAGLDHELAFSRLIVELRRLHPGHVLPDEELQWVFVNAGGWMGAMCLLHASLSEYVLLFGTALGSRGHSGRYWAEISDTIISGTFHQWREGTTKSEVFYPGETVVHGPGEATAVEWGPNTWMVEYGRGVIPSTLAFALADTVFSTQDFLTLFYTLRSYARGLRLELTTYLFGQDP

O=C(c1nnc(NC2CCCC2)c2cc(Cl)c(Cl)cc12)N1CCC(O)CC1
inhibition [1]: -7%
Activity (MEF): inactive
inhibition (Homo sapiens): 21%

Clc1cc2c(NC3CCCC3)nnc(-c3ccncc3)c2cc1Cl
inhibition (U2OS [2]): Active
Activity (HeLa): Active
inhibition [3]: 0%
inhibition (U2OS [4]): Active
inhibition [5]: -8%
inhibition [6]: 2%
inhibition [7]: -10%
inhibition (U2OS [8]): Active
inhibition [9]: inactive
Activity (U2OS [10]): Active
Activity (U2OS [11]): Active
inhibition [12]: -2%
inhibition [13]: inactive
inhibition [14]: inactive
ΔTm [15]: 6.4 °C
inhibition [16]: inactive
inhibition [17]: -1%
inhibition [18]: -3%
inhibition [19]: -2%
inhibition [20]: inactive
inhibition [21]: 1%
Activity (U2OS [22]): Active
inhibition [23]: -1%
inhibition (U2OS [24]): Active
Activity (U2OS [25]): Active
inhibition [26]: inactive
inhibition [27]: inactive
inhibition [28]: -7%
inhibition [29]: 0%
Activity (U2OS [30]): Active
inhibition [31]: -5%
inhibition [32]: inactive
inhibition (U2OS [33]): Active
